Where two headings read alike, the source gives them in different places. Marks after values point to notes of the source that are not given here.
Experiments:
[1] = test system: Y Trypanosoma cruzi strain; assay: Infection in mice (acute Chagas disease model); format: in vivo, BALB/c mice; settings: for Mortality: dead/total, monitored for 30 days after treatment; for % Blood parasitemia reduction in mice at 12 dpi: daily for 5 days from day 5 of infection, versus vehicle group
Protocol: Female BALB/c mice (18–22 g) were infected with bloodstream trypomastigotes by intraperitoneal inoculation of 10^4 parasites in 100 µL of saline solution and then mice were randomly divided in groups (six animals per group). Before starting the treatment on the fifth day post infection, the infection was confirmed in all animals where on average 0.4 × 10^6 parasites per ml of blood were found. Thus, after day 5 of infection, treatment with 20 mg/kg weight of indirubins 10, 11, 17 and 32 were given orally for five consecutive days. For the control group, benznidazole was given orally at dose of 100 mg/kg weight. Saline containing 20% DMSO was used as a vehicle and administrated on untreated and infected group. Infection was monitored daily by counting the number of motile parasites in 5 µL of fresh blood sample drawn from the lateral tail veins, as recommended by standard protocol. Survival of mice was monitored for 30 days after treatment.

[2] = test system: T. cruzi intracellular amastigotes; assay: In vitro infection assay (infected peritoneal macrophages); format: cell-based, Trypanosoma cruzi; settings: amastigotes in infected macrophages treated for 6 h, mean ± SD
Protocol: Peritoneal exudate macrophages were obtained by washing, with cold PBS, the peritoneal cavity of BALB/c mice 4–5 days after injection of 3% thioglycolate (Sigma-Aldrich) in saline (1.5 mL per mice). Then, cells were plated at a cell density of 2 × 10^5 cells/well in 24-well plates with sterile coverslips on the bottom in RPMI supplemented with 10% FBS and incubated for 24 h at 37° C and 5% CO2. Cells were then infected with trypomastigotes at a ratio of 10 parasites per macrophage for 2 h. Free trypomastigotes were removed by successive washes using saline solution. Cultures were incubated in complete medium alone or with the compounds under investigation in different concentrations for 6 h. The medium was replaced with fresh medium and the plate was incubated for 3 days. Cells were fixed in absolute alcohol and the percentage of infected macrophages and the mean number of amastigotes/100 macrophages was determined by manual counting after hematoxylin and eosin staining in an optical microscope (Olympus). The percentage of infected macrophages and the relative number of amastigotes per macrophage was determined by counting 100 cells per slide.
(§1) The selectivity index (SI) was defined as the ratio of CC50 by EC50 (trypomastigotes). The one-way ANOVA followed by Bonferroni’s multiple comparison test was used to determine the statistical significance of the group comparisons in the in vitro infection and in vivo studies. Results were considered statistically significant when P < 0.05. All analyzes were performed using Graph Pad Prism version 5.01

[3] = In vivo toxicity: mortality, behaviour, serum and urine renal and hepatic markers; settings: mice, 10 or 20 mg/Kg for 5 consecutive days, up to 3 months post treatment
Protocol: (§3) Thus, the highest dose was selected (20 mg/kg) and administrated, as described in material and methods section.
(§4) The analysis was performed in 6 mice per group.

[4] = test system: T. cruzi trypomastigotes (Y strain); assay: Cytotoxicity for trypomastigotes (viable parasite count, Neubauer chamber); format: cell-based, Trypanosoma cruzi; settings: for activity at the screening threshold (in words): threshold 10 μΜ
Source text: The trypanocidal activity of the 69 indirubins was initially evaluated against trypomastigotes (Y strain T. cruzi) through the determination of EC50 values. First, the collection of 69 indirubins (Table S1) was screened against the trypomastigote form of T. cruzi parasites at 10 μΜ and 1 μΜ.
The T. cruzi Y strain (DTU II) was used in this study. […] For in vivo analysis, bloodstream trypomastigotes used were obtained from BALB/c mice previously infected intraperitoneally with 10,000 Y trypomastigotes, and then bled after 8–12 days when they reached the peak of parasitaemia.
Trypomastigotes (4x10^5 cells/well) were seeded into 96-well plates and the indirubins were added at eight concentrations ranging from 0.08 to 10 µM, in triplicate. Plates were incubated for 24 h at 37 °C and 5% of CO2. Aliquots of each well were collected and the number of viable parasites, based on parasite integrity and motility, was assessed in a Neubauer chamber and compared to untreated cultures. Three independent experiments were performed.
as §1

[5] = mouse, in vivo, 20 mg/kg
Protocol: as §3, §4

[6] = test system: T. cruzi trypomastigotes; assay: Ultrastructural studies (TEM and SEM) of treated trypomastigotes; format: cell-based, Trypanosoma cruzi; settings: 24 h; for morphological alterations by scanning electron microscopy: EC50 and 2 x EC50 concentration; for ultrastructural alterations by transmission electron microscopy: EC50 concentration
Protocol: Parasites were then fixed with 2% formaldehyde and 2.5% glutaraldehyde in sodium cacodylate buffer (0.1 M, pH 7.2) for 1 h at room temperature. After fixation, parasites were washed 3 times with sodium cacodylate buffer (0.1 M, pH 7.2), and post-fixed with a 1.0 % solution of osmium tetroxide containing 0.8% potassium ferrocyanide (Sigma-Aldrich; Catalog number: P3289) for 1 h. Cells were subsequently dehydrated in increasing concentrations of acetone (30, 50, 70, 90 and 100%) for 10 min at each step and embedded in polybed resin (PolyScience; Catalog number: 00552–500). Ultrathin sections on copper grids were contrasted with uranyl acetate and lead citrate and observed under a ZEISS 109 transmission electron microscope. For scanning electron microscopy, trypomastigotes treated and fixed in the same conditions were washed in 0.1 M cacodylate buffer, and allowed to adhere in coverslips pre-coated with poly-L-lysine (Sigma-Aldrich; Catalog number: P4707). Cells were then post-fixed with a solution of osmium tetroxide containing 0.8% of potassium ferrocyanide for 30 min and dehydrated in crescent concentrations of ethanol (30, 50, 70, 90 and 100%). The samples were dried until the critical point, metallized with gold and analyzed in a JEOL JSM-6390LV scanning electron microscope. Two independent experiments were performed.

[7] = Cytotoxicity to mammalian cells (Alamar Blue); format: cell-based, mouse; settings: mouse, J774.1 macrophage cells; J774.1 cell viability, 72 h post-treatment
Protocol: (§2) Mouse macrophages (J774.1 cell line) were seeded into 96-well plates at a cell number 1 × 10^4 cells/well in DMEM medium supplemented with 10 % of FBS and incubated for 24 h at 37°C and 5% CO2. Samples were then added at eight concentrations (ranging from 0.078 to 10 µM) in triplicate, and incubated for 72 h, followed by the addition of 20 µL/well of Alamar Blue (Invitrogen; Catalog number: DAL1025). Colorimetric readings were performed 24 h later at 570 and 600 nm. CC50 values were calculated using data-points gathered from three independent experiments. Benznidazole was tested in concentrations ranging from 0.78 to 100 µM.
as §1

[8] = test system: murine macrophages J774.1; assay: Cytotoxicity to mammalian cells (Alamar Blue); format: cell-based, mouse
Protocol: as §2, §1

[9] = 20 mg/Kg orally, daily for 5 days
[10] = trypomastigotes, 24 h post-treatment, mean ± SD of three experiments, read-out: EC50 Try.
[11] = Table S1, 69 indirubin analogues, read-out: EC50 in T.cruzi trypomastigotes
[12] = 100 mg/Kg orally, daily for 5 days

For 3ʹpiperazine-6-BIO [Compound 11], the “effect on mortality (in words)” value [1, 9] was “protective effect”, the Mortality [1, 9] was 1/6 and the EC50 [2] was 0.22 µM. For the same compound, the “signs of toxicity or mortality (in words)” value [3] was “no signs of toxicity”, the EC50 [4, 10] was 0.25 µM and the “Blood Serum Alanine Aminotransferase (ALT)” value [5] was 29±2 U/I. For the same compound, the “Blood Serum Aspartate Aminotransferase (AST)” value [5] was 135.5±10.5 U/I, the “Blood Serum C-Reactive Protein (CRP)” value [5] was under 0.02 mg/dL and the “Blood Serum Creatinine” value [5] was 0.385 ± 0.015 mg/dL. For the same compound, the “Urine (24h) Creatinine” value [5] was 63±8, the “Urine (24h) Microalbumin (Urine Albumin)” value [5] was 9 ± 1 mg/L and the “Urine (24h) Urine albumin to creatinine ratio (ACR)” value [5] was 0.142. The “morphological alterations by scanning electron microscopy” value (“morphological alterations” below) [6] was “extensive loss of plasma membrane integrity”, the “morphological alterations” value ([6]; listed as compound 11) was “alterations in cell shape and loss of plasma membrane integrity” and the “ultrastructural alterations by transmission electron microscopy” value (“ultrastructural alterations” for short) [6] was “appearance of myelin figures”. The “ultrastructural alterations” value ([6]; listed as compound 11) was “DNA degradation with pyknotic nuclei”.

In the case of `CC(=O)O/N=C1/C(=C2/C(=O)Nc3cc(Br)ccc32)Nc2ccccc21` [Compound 50], the EC50 [4, 11] is reported as over 10 µM.

Work on `O=C1Nc2cc(Br)c([N+](=O)[O-])cc2C1=C1Nc2ccccc2C1=O` [Compound 54] yielded an EC50 [4, 11] of over 10 µM.

`Nc1cc2c(cc1Br)NC(=O)C2=C1Nc2ccccc2C1=O` [Compound 53] showed an EC50 [4, 11] of over 10 µM.

`O=C1Nc2cc(Cl)ccc2C1=C1Nc2ccccc2C1=NO` [Compound 64] gave an EC50 [4, 11] of over 10 µM.

With `O=C1Nc2c(cccc2C(F)(F)F)C1=C1Nc2ccccc2C1=NO` [Compound 27] the EC50 [4, 11] was over 10 µM.

With `Nc1cc2c(cc1Br)NC(=O)C2=C1Nc2ccccc2C1=NO` [Compound 52] the EC50 [4, 11] was over 10 µM.

In the case of `CCOP(=O)(OCC)ON=C1C(=C2C(=O)Nc3cc(Br)ccc32)Nc2ccccc21` [Compound 56], the EC50 [4, 11] is reported as over 10 µM.

For `O=C1Nc2cc(I)ccc2C1=C1Nc2ccccc2C1=NO` [Compound 65], the EC50 [4, 11] was over 10 µM.

`O=C1Nc2cc(Br)c([N+](=O)[O-])cc2C1=C1Nc2ccccc2C1=NO` [Compound 51] showed an EC50 [4, 11] of over 10 µM.

Work on `Nc1ccc2c(c1)C(=C1Nc3ccccc3C1=NO)C(=O)N2` [Compound 62] yielded an EC50 [4, 11] of over 10 µM.

Compound `O=C1Nc2c(Br)cccc2C1=C1Nc2ccccc2C1=O` [Compound 20] has an EC50 [4, 11] of over 10 µM.

Work on `CN1C(=O)C(=C2Nc3ccccc3C2=NO)c2ccc(Br)cc21` [Compound 58] yielded an EC50 [4, 11] of over 10 µM.

With `O=C1Nc2c(cccc2C(F)(F)F)C1=C1Nc2ccccc2C1=O` [Compound 36] the EC50 [4, 11] was over 10 µM.

In the case of `O=C1Nc2ccccc2/C1=C1/Nc2ccccc2C1=O` [Compound 66], the EC50 [4, 11] is reported as over 10 µM.

Work on `CC(=O)ON=C1C(=C2C(=O)N(C)c3cc(Br)ccc32)Nc2ccccc21` [Compound 59] yielded an EC50 [4, 11] of over 10 µM.

`CON=C1C(=C2C(=O)Nc3ccccc32)Nc2ccccc21` [Compound 67] showed an EC50 [4, 11] of over 10 µM.

`O=C1Nc2c(Br)cccc2C1=C1Nc2ccccc2C1=NO` [Compound 21] showed an EC50 [4, 11] of over 10 µM.

With `Cc1cc2c(cc1Br)NC(=O)C2=C1Nc2ccccc2C1=NO` [Compound 5-Me-6-BIO, 6-br-5methylindirubin-3ʹoxime] the EC50 [4, 11] was over 10 µM and the “activity at the screening threshold (in words)” value ([4]; trypomastigotes) was “did not exhibit any activity”.

In the case of `Cc1cc2c(cc1Br)NC(=O)C2=C1Nc2ccccc2C1=O` [Compound 57], the EC50 [4, 11] is reported as over 10 µM.

Work on `O=C1Nc2ccc(Br)cc2C1=C1Nc2ccccc2C1=NO` [Compound 61] yielded an EC50 [4, 11] of over 10 µM.

For `O=C(Cn1ccnc1[N+](=O)[O-])NCc1ccccc1` [Benznidazole, reference compound], the survival rate [1, 12] was 100%, the “% Blood parasitemia reduction in mice at 12 dpi” value ([1]; 100 mg/Kg orally) was > 99* % and the “% Blood parasitemia reduction in mice at 12 dpi” value ([1]; 100 mg/Kg orally, listed as benznidazole) was over 99%. For the same compound, the Mortality [1, 12] was 0/6*, the EC50 ([2]; Trypanosoma cruzi, Macrophage) was 13.4 µM and the CC50 at 72 h [7] was over 100 µM. The EC50 ([4]; Trypanosoma cruzi, 24 h, trypomastigotes, 24 h post-treatment, mean ± SD of three experiments, read-out: EC50 Try.) was 11.3 µM.

In the case of 3ʹpyrrolidine-6BIO [Compound 17], the “effect on mortality (in words)” value [1, 9] is reported as “protective effect”, the Mortality [1, 9] is reported as 1/6* and the EC50 [2] is reported as 0.9 µM. For the same compound, the “cytotoxicity against murine macrophages J774.1 (in words)” value [8] was “lower cytotoxicity”, the CC50 ([8]; J774.1 cell viability, 72 h post-treatment) was 10 µM and the EC50 [4, 10] was 0.44 µM. The “morphological alterations” value [6] was “extensive loss of plasma membrane integrity”, the “ultrastructural alterations” value [6] was “appearance of myelin figures” and the “ultrastructural alterations” value ([6]; listed as compound 17) was “DNA degradation with pyknotic nuclei”.

`O=C1Nc2cc(F)ccc2C1=C1Nc2ccccc2C1=NO` [Compound 63] gave an EC50 [4, 11] of over 10 µM.

`O=C1Nc2cc(N3CCNCC3)c([N+](=O)[O-])cc2C1=C1Nc2ccccc2C1=NO` [Compound 45] gave an EC50 [4, 11] of over 10 µM.

For `O=C1Nc2ccc(Br)cc2C1=C1Nc2ccccc2C1=O` [Compound 60], the EC50 [4, 11] was over 10 µM.

For `O=C1Nc2cc(Br)ccc2C1=C1Nc2ccccc2C1=NO` [Compound 6BIO, 3'oxime-6-bromoindirubin], the EC50 [4, 11] was over 10 µM and the “activity at the screening threshold (in words)” value ([4]; trypomastigotes) was “did not exhibit any activity”.

For `O=C1Nc2cc(Br)ccc2C1=C1Nc2ccccc2C1=O` [Compound 55], the EC50 [4, 11] was over 10 µM.

Source: publication PMC7000199, “Indirubin derivatives are potent and selective anti-Trypanosoma cruzi agents” (Virulence, 2018)
